Measured values: patent US20250376472A1, “3-(PHENYLSULFONYL)-[1,2,3]TRIAZOLO[1,5A]QUINAZOLIN-5(4H)-ONE DERIVATIVES” (priority 2022, published 2025)

Target: T1, AgrA (Staphylococcus aureus, UniProt P0A0I7)
T1 construct: endogenous in cells; host or cells: S. aureus USA300 strain UAMS-1625 carrying a P3-lacZ reporter plasmid
Experiment: cell-based
Parameters: species or system S. aureus
Conditions: for Ratio IC50 (in presence of HSA)/IC50 (in absence of HSA): 40 mg/mL HSA versus no HSA
Procedure: The inventive compounds are 3-(phenylsulfonyl)-[1,2,3]triazolo[1,5a]quinazolin-5(4h)-one derivatives comprising an N-bound piperazine or homopiperazine at the 8-position of the [1,2,3]triazolo[1,5a]quinazolin-5(4h)-one core, further substituted (on the second nitrogen atom) by an (optionally substituted) acetyl or propionyl amide group. […] Specifically, the reporter gene lacZ (which encodes the protein product β-galactosidase) was transfected into S. aureus with a plasmid under control of the P3 promoter. The compounds were serially diluted in lysogeny broth (LB), and incubated with S. aureus. Following incubation, the S. aureus cells were lysed and treated with 4-methylumbelliferyl-galactopyranoside (MUG). The β-galactosidase produced by expression of lacZ cleaved the MUG into galactopyranose and 4-methylumbelliferone, which was measured by fluorescence.
The resulting reporter strain was used to measure AgrA inhibitory activity as follows. From an overnight culture plate, cells were resuspended in 0.9% (w/v) saline solution and bacterial inoculum was prepared in LB medium with 5×10^5 CFU/ml. Compounds were two-fold serially diluted in LB and 50 μL of this 10× concentrated samples were added into the 96-deep well plate. 500 μL of bacterial suspension was finally added to the compounds or DMSO control. Plates were covered and incubated with shaking at 37° C. After 18 hours incubation, 100 μL was transferred to a new clear 96-well plate and the OD600 was measured using a TECAN Infinite F200 microplate reader to control for growth inhibition. Another 100 μL was transferred to a new black 96-well plate containing 30 μL of lysis buffer (20 mM Tris/HCl, 3 mM MgCl2, 0.5% Tween 20 (v/v), 0.5% NP-40 (v/v)) and the plate was incubated with shaking at 37° C. for 60 min. 20 μL of the substrate MUG (4-Methylumbelliferyl O-D-galactopyranoside) at 0.25 mg/ml was added and the fluorescence (excitation: 360 nm, emission: 450 mu) was measured with a TECAN Infinite F200 microplate reader after 3 hours incubation at 37° C. with shaking. The IC50 was determined using GraphPad PRISM after normalization to DMSO control.

[1] = IC50 at 40 mg/mL HSA, LB medium supplemented with human serum albumin 40 mg/mL
[2] = IC50 without HSA, LB medium, no human serum albumin, 18 hours incubation
[3] = LB medium supplemented with human serum albumin 40 mg/mL
[4] = LB medium, no human serum albumin, 18 hours incubation

T1 sequence (P0A0I7 whole entry): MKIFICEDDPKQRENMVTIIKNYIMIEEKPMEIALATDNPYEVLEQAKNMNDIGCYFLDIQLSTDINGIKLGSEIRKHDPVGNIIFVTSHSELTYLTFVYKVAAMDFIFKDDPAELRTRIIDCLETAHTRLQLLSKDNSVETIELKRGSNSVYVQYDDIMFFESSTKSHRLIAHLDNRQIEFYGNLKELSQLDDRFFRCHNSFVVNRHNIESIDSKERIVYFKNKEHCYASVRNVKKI

SMILES	IC50 [1] [µM]	IC50 [2] [µM]	other results
Cc1ccc(S(=O)(=O)c2nnn3c2[nH]c(=O)c2ccc(N4CCN(CC(=O)NC5CCC(O)CC5)CC4)cc23)c(C)c1 (stereo not shown) [Compound 43]	< 16.8	< 1.68	
Cc1ccc(S(=O)(=O)c2nnn3c2[nH]c(=O)c2ccc(N4CCN(CC(=O)NCCCC5CCCCC5)CC4)cc23)c(C)c1 [Compound 44]	16.1 to 80.7	1.61 to 8.07	
Cc1ccc(S(=O)(=O)c2nnn3c2[nH]c(=O)c2ccc(N4CCC4)cc23)c(C)c1 [Compound 45 of WO 2020/109350, reference compound]	> 122	< 2.44	Ratio IC50 (in presence of HSA)/IC50 (in absence of HSA): + (+: ratio > 125); IC50 (IC50 in the presence of 40 mg/mL HSA, 40 mg/mL HSA, highest concentration tested 128 μg/mL): > 313 µM; IC50 (concentration inhibiting the expression of lacZ in the absence of HSA, absence of HSA): < 2.44 µM
Cc1ccc(S(=O)(=O)c2nnn3c2[nH]c(=O)c2ccc(N4CCCN(CC(=O)NC5CCC5)CC4)cc23)c(C)c1 [Compound 51]	17.7 to 88.7	< 1.77	
Cc1ccc(S(=O)(=O)c2nnn3c2[nH]c(=O)c2ccc(N4CCCN(CC(=O)NC5CCCC5)CC4)cc23)c(C)c1 [Compound 52]	17.3 to 86.5	1.73 to 8.65	
Cc1ccc(S(=O)(=O)c2nnn3c2[nH]c(=O)c2ccc(N4CCCN(CC(=O)NC5CCCCC5)CC4)cc23)c(C)c1 [Compound 53]			Ratio IC50 (in presence of HSA)/IC50 (in absence of HSA): +++ (+++: ratio ≤ 25); IC50 at 40 mg/mL HSA [3]: ++ (++: 10 μg/mL < IC50 ≤ 50 μg/mL); IC50 without HSA [4]: ++ (++: 1 μg/mL < IC50 ≤ 5 μg/mL)
Cc1ccc(S(=O)(=O)c2nnn3c2[nH]c(=O)c2ccc(N4CCN(CC(=O)N5CCC5)CC4)cc23)c(C)c1 [Compound 54]	18.7 to 93.3	< 1.87	
Cc1ccc(S(=O)(=O)c2nnn3c2[nH]c(=O)c2ccc(N4CCN(CC(=O)N5CCCCC5)CC4)cc23)c(C)c1 [Compound 55]	17.7 to 88.7	< 1.77	
Cc1ccc(S(=O)(=O)c2nnn3c2[nH]c(=O)c2ccc(N4CCN(CC(=O)N5CCCCCC5)CC4)cc23)c(C)c1 [Compound 56]			Ratio IC50 (in presence of HSA)/IC50 (in absence of HSA): ++ (++: 25 < ratio ≤ 125); IC50 at 40 mg/mL HSA [3]: ++ (++: 10 μg/mL < IC50 ≤ 50 μg/mL); IC50 without HSA [4]: +++ (+++: IC50 ≤ 1 μg/mL)
Cc1ccc(S(=O)(=O)c2nnn3c2[nH]c(=O)c2ccc(N4CCN(CC(=O)N5CCCOCC5)CC4)cc23)c(C)c1 [Compound 57]	17.3 to 86.3	< 1.73	
Cc1ccc(S(=O)(=O)c2nnn3c2[nH]c(=O)c2ccc(N4CCN(CC(=O)N5CCN(C)CC5)CC4)cc23)c(C)c1 [Compound 58]	17.3 to 86.4	< 1.73	
Cc1ccc(S(=O)(=O)c2nnn3c2[nH]c(=O)c2ccc(N4CCN(CC(=O)N5CCN(C(C)(C)C)CC5)CC4)cc23)c(C)c1 [Compound 59]	< 16.1	1.61 to 8.05	
Cc1ccc(S(=O)(=O)c2nnn3c2[nH]c(=O)c2ccc(N4CCN(CC(=O)N5CCN(C6CC6)CC5)CC4)cc23)c(C)c1 [Compound 60]	< 16.5	< 1.65	
Cc1ccc(S(=O)(=O)c2nnn3c2[nH]c(=O)c2ccc(N4CCN(CC(=O)N5CCNC(=O)C5)CC4)cc23)c(C)c1 [Compound 62]	17.3 to 86.4	1.73 to 8.64	
Cc1ccc(S(=O)(=O)c2nnn3c2[nH]c(=O)c2ccc(N4CCN(CC(=O)N5CCC(F)(F)CC5)CC4)cc23)c(C)c1 [Compound 64]	16.7 to 83.4	< 1.67	
Cc1ccc(S(=O)(=O)c2nnn3c2[nH]c(=O)c2ccc(N4CCN(CC(=O)N5CCC(N(C)C)CC5)CC4)cc23)c(C)c1 [Compound 65]	< 16.5	1.65 to 8.24	
Cc1ccc(S(=O)(=O)c2nnn3c2[nH]c(=O)c2ccc(N4CCN(CC(=O)N5CCCC(O)C5)CC4)cc23)c(C)c1 (stereo not shown) [Compound 67]	17.3 to 86.3	1.73 to 8.63	
Cc1ccc(S(=O)(=O)c2nnn3c2[nH]c(=O)c2ccc(N4CCN(CC(=O)N5CCCN(C)CC5)CC4)cc23)c(C)c1 [Compound 69]	< 16.9	1.69 to 8.44	
Cc1ccc(S(=O)(=O)c2nnn3c2[nH]c(=O)c2ccc(N4CCN(CC(=O)N5CCCN(C(C)C)CC5)CC4)cc23)c(C)c1 [Compound 70]	16.1 to 80.5	< 1.61	

SMILES	IC50 [1] [µM]	IC50 [2] [µM]	other results
Cc1ccc(S(=O)(=O)c2nnn3c2[nH]c(=O)c2ccc(N4CCN(CC(=O)N5CCCN(CCO)CC5)CC4)cc23)c(C)c1 [Compound 71]	16.1 to 80.3	1.61 to 8.03	
Cc1ccc(S(=O)(=O)c2nnn3c2[nH]c(=O)c2ccc(N4CCN(CC(=O)N5CCCC(=O)CC5)CC4)cc23)c(C)c1 [Compound 72]	16.9 to 84.5	< 1.69	
Cc1ccc(S(=O)(=O)c2nnn3c2[nH]c(=O)c2ccc(N4CCN(CC(=O)N5CC(C6CC6)C5)CC4)cc23)c(C)c1 [Compound 73]	17.4 to 86.9	< 1.74	
Cc1ccc(S(=O)(=O)c2nnn3c2[nH]c(=O)c2ccc(N4CCN(CC(=O)N5C(C)CCC5C)CC4)cc23)c(C)c1 (stereo not shown) [Compound 74]			Ratio IC50 (in presence of HSA)/IC50 (in absence of HSA): +++ (+++: ratio ≤ 25); IC50 at 40 mg/mL HSA [3]: ++ (++: 10 μg/mL < IC50 ≤ 50 μg/mL); IC50 without HSA [4]: +++ (+++: IC50 ≤ 1 μg/mL)
Cc1ccc(S(=O)(=O)c2nnn3c2[nH]c(=O)c2ccc(N4CCN(CC(=O)N5CCC(O)C5)CC4)cc23)c(C)c1 (stereo not shown) [Compound 75]			Ratio IC50 (in presence of HSA)/IC50 (in absence of HSA): +++ (+++: ratio ≤ 25); IC50 at 40 mg/mL HSA [3]: ++ (++: 10 μg/mL < IC50 ≤ 50 μg/mL); IC50 without HSA [4]: ++ (++: 1 μg/mL < IC50 ≤ 5 μg/mL)
Cc1ccc(S(=O)(=O)c2nnn3c2[nH]c(=O)c2ccc(N4CCN(CC(=O)N5CCCC5CO)CC4)cc23)c(C)c1 (stereo not shown) [Compound 76]			Ratio IC50 (in presence of HSA)/IC50 (in absence of HSA): +++ (+++: ratio ≤ 25); IC50 at 40 mg/mL HSA [3]: ++ (++: 10 μg/mL < IC50 ≤ 50 μg/mL); IC50 without HSA [4]: ++ (++: 1 μg/mL < IC50 ≤ 5 μg/mL)
Cc1ccc(S(=O)(=O)c2nnn3c2[nH]c(=O)c2ccc(N4CCCN(CC(=O)N5CCCC5)CC4)cc23)c(C)c1 [Compound 83]			Ratio IC50 (in presence of HSA)/IC50 (in absence of HSA): +++ (+++: ratio ≤ 25); IC50 at 40 mg/mL HSA [3]: +++ (+++: IC50 ≤ 10 μg/mL); IC50 without HSA [4]: ++ (++: 1 μg/mL < IC50 ≤ 5 μg/mL)
Cc1ccc(S(=O)(=O)c2nnn3c2[nH]c(=O)c2ccc(N4CCCN(CC(=O)N5CCOCC5)CC4)cc23)c(C)c1 [Compound 84]			Ratio IC50 (in presence of HSA)/IC50 (in absence of HSA): +++ (+++: ratio ≤ 25); IC50 at 40 mg/mL HSA [3]: +++ (+++: IC50 ≤ 10 μg/mL); IC50 without HSA [4]: ++ (++: 1 μg/mL < IC50 ≤ 5 μg/mL)
Cc1ccc(S(=O)(=O)c2nnn3c2[nH]c(=O)c2ccc(N4CCCN(CC(=O)N5CCCCC5)CC4)cc23)c(C)c1 [Compound 85]	17.3 to 86.5	1.73 to 8.65	
Cc1ccc(S(=O)(=O)c2nnn3c2[nH]c(=O)c2ccc(N4CCN(CC(=O)NC5CCN(C)CC5)CC4)cc23)c(C)c1 [Compound 86]	16.9 to 84.4	1.69 to 8.44	
Cc1ccc(S(=O)(=O)c2nnn3c2[nH]c(=O)c2ccc(N4CCN(CC(=O)NC5CCOCC5)CC4)cc23)c(C)c1 [Compound 87]			Ratio IC50 (in presence of HSA)/IC50 (in absence of HSA): +++ (+++: ratio ≤ 25); IC50 at 40 mg/mL HSA [3]: +++ (+++: IC50 ≤ 10 μg/mL); IC50 without HSA [4]: +++ (+++: IC50 ≤ 1 μg/mL)
Cc1ccc(S(=O)(=O)c2nnn3c2[nH]c(=O)c2ccc(N4CCN(CC(=O)NCC5CCN(C)CC5)CC4)cc23)c(C)c1 [Compound 88]	16.5 to 82.4	1.65 to 8.24	
Cc1ccc(S(=O)(=O)c2nnn3c2[nH]c(=O)c2ccc(N4CCN(CC(=O)NCCN5CCN(C)CC5)CC4)cc23)c(C)c1 [Compound 89]	16.1 to 80.4	1.61 to 8.04	
Cc1ccc(S(=O)(=O)c2nnn3c2[nH]c(=O)c2ccc(N4CCN(CC(=O)NCCN5CCCCC5)CC4)cc23)c(C)c1 [Compound 90]	16.5 to 82.4	1.65 to 8.24	
Cc1ccc(S(=O)(=O)c2nnn3c2[nH]c(=O)c2ccc(N4CCN(CC(=O)NCCN5CCOCC5)CC4)cc23)c(C)c1 [Compound 91]	16.4 to 82.1	1.64 to 8.21	
Cc1ccc(S(=O)(=O)c2nnn3c2[nH]c(=O)c2ccc(N4CCN(CC(=O)NCCCN5CCOCC5)CC4)cc23)c(C)c1 [Compound 92]	16.1 to 80.3	1.61 to 8.03	
CCN1CCCC1CNC(=O)CN1CCN(c2ccc3c(=O)[nH]c4c(S(=O)(=O)c5ccc(C)cc5C)nnn4c3c2)CC1 (stereo not shown) [Compound 93]	< 16.5	1.65 to 8.24	
Cc1ccc(S(=O)(=O)c2nnn3c2[nH]c(=O)c2ccc(N4CCN(CC(=O)NCCN5CCCC5)CC4)cc23)c(C)c1 [Compound 94]	16.9 to 84.4	1.69 to 8.44	
Cc1ccc(S(=O)(=O)c2nnn3c2[nH]c(=O)c2ccc(N4CCN(CC(=O)NCCC5CCCN5C)CC4)cc23)c(C)c1 (stereo not shown) [Compound 95]			Ratio IC50 (in presence of HSA)/IC50 (in absence of HSA): +++ (+++: ratio ≤ 25); IC50 at 40 mg/mL HSA [3]: ++ (++: 10 μg/mL < IC50 ≤ 50 μg/mL); IC50 without HSA [4]: ++ (++: 1 μg/mL < IC50 ≤ 5 μg/mL)
